Measurements published in patent US8765755B2, “N-containing heterocyclic compounds” (YM Biosciences Australia Pty Ltd, priority 2007, dated 2014).

What was measured:
[1] = system: BafT_J2; assay: Cellular screening, BaF3 TEL:JAK2 cells (Alamar Blue); type: cell-based; settings: Mus musculus, 40 hr incubation
Experimental: (§1) For screening purposes, compounds were diluted in 96 well plates at a concentration of 20 μM. Plates were warmed at 37° C. for 30 minutes before the assay was performed.
(§2) The coding region encompassing nucleotides 1-487 of TEL was amplified by PCR using the oligonucleotides 5TEL (5′-GGAGGATCCTGATCTCTCTCGCTGTGAGAC-3′) [SEQ ID NO 14] and 3TEL (5′-AGGC GTCGACTTCTTCTTCATGGTTCTG-3′) [SEQ ID NO 15] and U937 mRNA as a template. A BamHI restriction site was incorporated into the 5TEL primer, and a Sal I restriction site was incorporated into the 3TEL primer. The regions encompassing the kinase domain of JAK2 (nucleotides 2994-3914; JAK2F 5′-ACGC GTCGACGGTGCCTTTGAAGACCGGGAT-3′ [SEQ ID NO 16]; JAK2R 5′-ATAGTTTAGCGGCCGCTCAGAATGAAGGTCATTT-3′) [SEQ ID NO 17] and JAK3 (nucleotides 2520-3469; JAK3F 5′-GAAGTCGACTATGCCTGCCAAGACCCCACGATCTT-3′) [SEQ ID NO 18] were generated by PCR using Taq DNA polymerase (Gibco/BRL) and U937 mRNA as a template. A Sal I restriction site was incorporated into the forward primer of JAK2 and JAK3, a Not I site was incorporated into the JAK2 reverse primer and a Xba I site was added to the reverse primer of JAK3.
A TEL/Jak2 fusion was generated by digestion of the TELPCR product with BamH I/Sal I restriction enzymes, digestion of the JAK2 PCR product with Sal I/Not I restriction enzymes, followed by ligation and subcloning of the ligation product into the mammalian expression Vector pTRE 2 (Clontech), which was prepared by digestion with BamH I-Not I restriction enzymes, to give the TEL/Jak2 fusion plasmid pTELJAK2.
(§3) The growth factor dependant myelomonocytic cell line BaF3 bearing the pTET-off plasmid (Clontech) was transfected with either pTELJAK2 or pTELJAK3, and the transfected cells were selected for growth-factor independent cell growth. The BaF3 wild-type cells were cultured in DMEM containing 10% FCS, 10% WEHI 3B conditioned medium. The BaF3 TELJAK cells ([…]) were cultured in DMEM 10% Tet-System Approved FBS (without WEHI 3B conditioned medium).
(§4) Cell suspensions were prepared by harvesting cells from culture. (the cells used in this test were in late log phase growth with high viability.) Cells were diluted in the appropriate growth medium, as described above, to 1.1× final concentration (from 50,000 cell/mL to 200,000 cell/mL, depending on cell line).
(§5) Compounds to be tested were added (10 μL, 10× final concentration) to a flat bottomed 96-well plate. The cellular suspension (90 μL per well) was then added, and the plate incubated for 40 hr at 37° C., 5% CO2. Alamar Blue 10 μL per well was added and the plates returned to the incubator for a further 4-6 hours. The plates were then read at 544 nm.

[2] = system: BafT_J3; assay: Cellular screening, BaF3 TEL:JAK3 cells (Alamar Blue); type: cell-based; settings: Mus musculus, 40 hr incubation
Experimental: as §1, §2
The TEL/Jak3 fusion was prepared by ligation of the JAK3 Sal I/Not I cleaved kinase domain PCR product with the BamH I/Sal I restriction digested TEL product, followed by ligation of the ligation product into the BamH I/Not I digested pTRE2, to give the TEL/Jak3 fusion plasmid pTELJAK3.
as §3, §4, §5

[3] = system: CTLL2; assay: Cellular screening, CTLL2 cells (Alamar Blue); type: cell-based; settings: Mus musculus, CTLL-2, 40 hr incubation
Experimental: as §1, §4, §5

[4] = molecular target: T1, human JAK2 (Homo sapiens, UniProt O60674); assay: JAK2 kinase enzyme assay (Alphascreen); type: biochemical; settings: 80 or 625 um ATP
T1 construct: The kinase domain of human JAK2 was amplified; GST (N); made in house; host or cells: Sf9 (Spodoptera frugiperda) insect cells, baculovirus
T1 sequence (O60674 849-1124 limits assumed): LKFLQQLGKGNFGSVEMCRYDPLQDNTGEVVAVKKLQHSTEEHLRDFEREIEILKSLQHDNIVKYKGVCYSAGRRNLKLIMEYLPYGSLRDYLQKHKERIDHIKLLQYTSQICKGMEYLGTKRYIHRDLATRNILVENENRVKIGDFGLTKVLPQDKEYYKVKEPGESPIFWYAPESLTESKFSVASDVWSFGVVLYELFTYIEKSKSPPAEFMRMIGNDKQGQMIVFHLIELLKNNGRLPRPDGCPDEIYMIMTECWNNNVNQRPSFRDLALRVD
Experimental: (§6) For screening purposes, compounds (in 100% DMSO) were warmed at 37 degrees for at least 20 minutes before use. A […] stock was initially made in assay buffer, where the final concentration of DMSO was 0.3%. The stocks were then diluted in 384 well Optiplates (Packard) where the final concentration of the compound was 5 μM.
The kinase domain of human JAK2 was amplified from U937mRNA using the polymerase chain reaction with the following primers: […]
The JAK2 PCR products were cloned into the pDest20 destination vector (Gibco). The JAK2 plasmid was then transformed into competent DH10Bac cells (Gibco), and the recombinant baculovirus was prepared via Sf9 insect cell transfection.
(§7) Baculovirus preparations from each of the JAK family members were infected into one litre of Sf9 (Spodoptera frugiperda) cells (Invitrogen) grown in SF900II serum free medium (Invitrogen) to a cell density of approximately 2×10^6 cells/ml. Cells were infected with virus at a cell culture to virus stock ratio of 20:1. Cells were harvested and lysed 48 hours post infection. The GST-tagged JAK kinase domains were purified by affinity chromatography on a GSH agarose column (Scientifix).
(§8) Kinase assays were performed in 384 well Optiplates (Packard) using an Alphascreen Protein Tyrosine KinaseP100 detection kit The compounds were pre-incubated with affinity purified PTK domain in the presence of phosphotyrosine assay buffer (10 mM HEPES, pH 7.5, 100 mM MgCl2, 25 mM NaCl, 200 mM sodium vanadate and 0.1% Tween 20) for 20 minutes. The compounds were then incubated with substrate in the presence of either 80 or 625 um ATP for 60 or 90 minutes. The substrate used was either susbtrate-1 with the sequence biotin-EGPWLEEEEEAYGWMDF-NH2 [SEQ. ID. NO. 13] (final concentration 111 μM) or susbtrate-2 substrate with the sequence biotin-EQEDEPEGDYFEWLEPE (final concentration 133 μM). Alphascreen phosphotyrosine acceptor beads followed by streptavidin donor beads at a concentration of 1/100 in stop buffer were added to each well under subdued light and incubated for 2-3 hours. The Alphascreen plates were read on a Packard Fusion Alpha instrument.

[5] = molecular target: T2, human JAK3 (Homo sapiens, UniProt P52333); assay: JAK3 kinase enzyme assay (Alphascreen); type: biochemical; settings: 80 or 625 um ATP
T2 construct: The kinase domain of human JAK3 was amplified; GST (N); made in house; host or cells: Sf9 (Spodoptera frugiperda) insect cells, baculovirus
T2 sequence (P52333 822-1111 limits assumed): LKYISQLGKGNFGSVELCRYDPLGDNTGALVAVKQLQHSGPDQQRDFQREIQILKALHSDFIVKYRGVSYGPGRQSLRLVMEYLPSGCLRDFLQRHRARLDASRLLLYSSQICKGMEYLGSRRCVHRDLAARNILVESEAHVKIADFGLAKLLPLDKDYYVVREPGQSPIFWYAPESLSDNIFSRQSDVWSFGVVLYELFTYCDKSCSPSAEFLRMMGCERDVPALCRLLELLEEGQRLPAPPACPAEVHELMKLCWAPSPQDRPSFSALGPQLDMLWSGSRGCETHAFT
Experimental: as §6
The kinase domain of human JAK3 was amplified from U937mRNA using the polymerase chain reaction with the following primers: […]
The JAK3 PCR products were cloned into the pDest20 destination expression vector (Gibco). The JAK3 plasmid was then transformed into competent DH10Bac cells (Gibco), and the recombinant baculovirus was prepared via Sf9 insect cell transfection.
as §7, §8

[6] = system: BAF3wt; assay: Cellular screening, BaF3 wild-type cells (Alamar Blue); type: cell-based; settings: Mus musculus, 40 hr incubation
Experimental: as §1, §3, §4, §5

SMILES: COc1ncc(-c2csc3cnc(Nc4ccc(OC)c(OC)c4)nc23)c(OC)n1 [Compound 56, N-(3,4-dimethoxyphenyl)-7-(2,4-dimethoxypyrimidin-5-yl)thieno[3,2-d]pyrimidin-2-amine]
- IC50 [1]: < 5000 nM
- IC50 [2]: < 5000 nM
- IC50 [3]: < 5000 nM
- IC50 [4]: < 100 nM
- IC50 [5]: < 100 nM
- IC50 [6]: < 5000 nM

SMILES: CC(C)(C)NS(=O)(=O)c1cccc(-c2csc3cnc(Nc4ccc(CN5CCOCC5)cc4)nc23)c1 [Compound 58, N-tert-butyl-3-(2-(4-(morpholinomethyl)phenylamino)thieno[3,2-d]pyrimidin-7-yl)benzenesulfonamide]
- IC50 [1]: < 1000 nM
- IC50 [2]: < 1000 nM
- IC50 [3]: < 1000 nM
- IC50 [4]: < 100 nM
- IC50 [5]: < 500 nM
- IC50 [6]: < 1000 nM

SMILES: CC(=O)Nc1cccc(-c2csc3cnc(Nc4ccc(OCCN5CCCC5)cc4)nc23)c1 [Compound 62, N-(3-(2-(4-(2-(pyrrolidin-1-yl)ethoxy)phenylamino)thieno[3,2-d]pyrimidin-7-yl)phenyl)acetamide]
- IC50 [1]: < 1000 nM
- IC50 [2]: < 1000 nM
- IC50 [3]: < 1000 nM
- IC50 [4]: < 100 nM
- IC50 [5]: < 100 nM
- IC50 [6]: < 1000 nM

SMILES: N#CCNC(=O)c1cccc(-c2csc3cnc(Nc4ccc(N5CCOCC5)cc4)nc23)c1 [Compound 63, N-(cyanomethyl)-3-(2-(4-morpholinophenylamino)thieno[3,2-d]pyrimidin-7-yl)benzamide]
- IC50 [1]: < 1000 nM
- IC50 [2]: < 1000 nM
- IC50 [3]: < 1000 nM
- IC50 [4]: < 100 nM
- IC50 [5]: < 100 nM
- IC50 [6]: < 1000 nM

SMILES: CCN1CCC(Oc2ccc(Nc3ncc4scc(-c5cccc(S(=O)(=O)NC(C)(C)C)c5)c4n3)cc2)CC1 [Compound 65, N-tert-butyl-3-(2-(4-(1-ethylpiperidin-4-yloxy)phenylamino)thieno[3,2-d]pyrimidin-7-yl)benzenesulfonamide]
- IC50 [1]: < 1000 nM
- IC50 [2]: < 1000 nM
- IC50 [3]: < 5000 nM
- IC50 [4]: < 100 nM
- IC50 [5]: < 100 nM
- IC50 [6]: < 5000 nM

SMILES: CCN1CCN(Cc2ccc(Nc3ncc4scc(-c5cccc(S(=O)(=O)NC(C)(C)C)c5)c4n3)cc2)CC1 [Compound 68, N-tert-butyl-3-(2-(4-((4-ethylpiperazin-1-yl)methyl)phenylamino)thieno[3,2-d]pyrimidin-7-yl)benzenesulfonamide]
- IC50 [1]: < 1000 nM
- IC50 [2]: < 1000 nM
- IC50 [3]: < 5000 nM
- IC50 [4]: < 100 nM
- IC50 [5]: < 500 nM
- IC50 [6]: < 1000 nM

SMILES: N#CCNC(=O)c1cccc(-c2csc3cnc(Nc4ccc(CN5CCOCC5)cc4)nc23)c1 [Compound 70, N-(cyanomethyl)-3-(2-(4-(morpholinomethyl)phenylamino)thieno[3,2-d]pyrimidin-7-yl)benzamide]
- IC50 [1]: < 1000 nM
- IC50 [2]: < 1000 nM
- IC50 [3]: < 5000 nM
- IC50 [4]: < 100 nM
- IC50 [5]: < 100 nM
- IC50 [6]: < 1000 nM

SMILES: CC(C)(C)NS(=O)(=O)c1cccc(-c2csc3cnc(Nc4ccc(OCCN5CCCC5)cc4)nc23)c1 [Compound 71, N-tert-butyl-3-(2-(4-(2-(pyrrolidin-1-yl)ethoxy)phenylamino)thieno[3,2-d]pyrimidin-7-yl)benzenesulfonamide]
- IC50 [1]: < 1000 nM
- IC50 [2]: < 1000 nM
- IC50 [3]: < 5000 nM
- IC50 [4]: < 100 nM
- IC50 [5]: < 100 nM
- IC50 [6]: < 5000 nM

SMILES: CC(C)(C)OC(=O)NCc1cccc(-c2csc3cnc(Nc4ccc(OCCN5CCCC5)cc4)nc23)c1 [Compound 72]
- IC50 [1]: < 1000 nM
- IC50 [2]: < 1000 nM
- IC50 [3]: < 1000 nM
- IC50 [4]: < 100 nM
- IC50 [5]: < 100 nM
- IC50 [6]: < 5000 nM

SMILES: NS(=O)(=O)c1cccc(-c2csc3cnc(Nc4ccc(OCCN5CCCC5)cc4)nc23)c1 [Compound 73, 3-(2-(4-(2-(pyrrolidin-1-yl)ethoxy)phenylamino)thieno[3,2-d]pyrimidin-7-yl)benzenesulfonamide]
- IC50 [1]: < 1000 nM
- IC50 [2]: < 1000 nM
- IC50 [3]: < 5000 nM
- IC50 [4]: < 100 nM
- IC50 [5]: < 100 nM
- IC50 [6]: < 1000 nM

SMILES: Fc1ccc(-c2csc3cnc(Nc4ccc(OCCN5CCCC5)cc4)nc23)cc1Cl [Compound 74, 7-(3-chloro-4-fluorophenyl)-N-(4-(2-(pyrrolidin-1-yl)ethoxy)phenyl)thieno[3,2-d]pyrimidin-2-amine]
- IC50 [1]: < 1000 nM
- IC50 [2]: < 5000 nM
- IC50 [3]: < 5000 nM
- IC50 [4]: < 100 nM
- IC50 [5]: < 500 nM
- IC50 [6]: < 5000 nM

SMILES: c1cc(Nc2ncc3scc(-c4ccc5c(c4)OCO5)c3n2)ccc1CN1CCOCC1 [Compound 76, 7-(benzo[d][1,3]dioxol-5-yl)-N-(4-(morpholinomethyl)phenyl)thieno[3,2-d]pyrimidin-2-amine]
- IC50 [1]: < 1000 nM
- IC50 [2]: < 1000 nM
- IC50 [3]: < 1000 nM
- IC50 [4]: < 100 nM
- IC50 [5]: < 500 nM
- IC50 [6]: < 1000 nM

SMILES: CC(C)(C)OC(=O)N1CC=C(c2csc3cnc(Nc4ccc(CN5CCOCC5)cc4)nc23)CC1 [Compound 79, tert-butyl 4-(2-(4-(morpholinomethyl)phenylamino)thieno[3,2-d]pyrimidin-7-yl)-5,6-dihydropyridine-1(2H)-carboxylate]
- IC50 [1]: < 1000 nM
- IC50 [2]: < 5000 nM
- IC50 [3]: < 1000 nM
- IC50 [4]: < 100 nM
- IC50 [5]: < 100 nM
- IC50 [6]: < 5000 nM

SMILES: CC(=O)Nc1cccc(-c2csc3cnc(Nc4ccc(CN5CCOCC5)cc4)nc23)c1 [Compound 81, N-(3-(2-(4-(morpholinomethyl)phenylamino)thieno[3,2-d]pyrimidin-7-yl)phenyl)acetamide]
- IC50 [1]: < 1000 nM
- IC50 [2]: < 1000 nM
- IC50 [3]: < 1000 nM
- IC50 [4]: < 100 nM
- IC50 [5]: < 500 nM
- IC50 [6]: < 1000 nM
